Columns and labels:
[1] = tested on: T3-induced cells (HS5) and PC12 neuronal cells; assay: ATP-bioluminescence in T3-induced cells (HS5) and PC12 neuronal cells under hypoxia (Example 6); assay type: cell-based; details: hypoxia 24 hours; Epinephrine 0.5 μM
Procedure: (§1) The cells were then cultured under hypoxia for 24 hours. Results using ATP-bioluminescence and LDH release assays.

swine = assay: porcine cardiac arrest model; assay type: in vivo
Procedure: In this study, swine were subjected to 7 minutes of cardiac arrest followed by manual CPR for up to 20 minutes with defibrillation every 2 minutes as necessary. […] In animals that achieved ROSC (unassisted systolic BP>80 mmHg for 1 min), further pharmacologic support was limited to 1 additional dose of the selected drug for hypotension. Hemodynamics, left ventricular (LV) function, plasma cardiac troponin I (cTnl) and other parameters were assessed at baseline and for up to 4 hours post-ROSC.

[2] = tested on: Neuron-Specific Enolase (NSE); assay: Neuron-Specific Enolase ELISA in pig blood plasma after cardiac arrest and resuscitation; assay type: in vivo; details: 2 hours post-ROSC
Procedure: The blood samples were collected from pigs subjected to cardiac arrest and resuscitation as described in Example 7. […] At 2 hours post-ROSC, blood samples were collected from a peripheral vein into tubes with EDTA and centrifuged for 15 minutes. The plasma samples were then used for the NSE assay based on the manufacturer's instructions.

neonatal cardiomyocytes [3] = assay: ATP-bioluminescence assay in isolated neonatal cardiomyocytes under hypoxia; assay type: cell-based; details: 4% oxygen, 5% CO2, 37° C., 24 hours
Procedure: (§2) This study aimed to investigate the positive protective role of T3, T3 nanoparticles and nanoparticles of T3 and phosphocreatine (PCR) in hypoxia-mediated cardiac cell insults, as well as its influences on vascularization and neuronal protection, under hypoxic condition. […] Mitochondrial function and sarcomere integrity were studied using an ATP-bioluminescence assay, and cardiac Troponin T levels using flow cytometry, respectively.
(§3) The cells were cultured in a hypoxia incubator with 4% oxygen, 5% CO2 at 37° C. for 24 hours. Following incubation, the cells were collected and compared with those of normal condition. Mitochondrial function and sarcomere integrity were studied using an ATP-bioluminescence assay, and cardiac Troponin T levels using flow cytometry after adding troponin T antibody conjugated with FITC.

neonatal cardiomyocytes [4] = assay: neonatal cardiomyocyte contraction under normoxic and hypoxic condition; assay type: cell-based
[5] = tested on: T3-induced cells (HS5) and PC12 neuronal cells; assay: LDH release assay in T3-induced cells (HS5) and PC12 neuronal cells under hypoxia (Example 6); assay type: cell-based; details: hypoxia 24 hours; Epinephrine 0.5 μM
Procedure: as §1

neonatal cardiomyocytes [6] = assay: cardiac Troponin T levels by flow cytometry in neonatal cardiomyocytes under hypoxia; assay type: cell-based; details: 4% oxygen, 5% CO2, 37° C., 24 hours
Procedure: as §2, §3

[7] = tested on: chick embryo chorioallantoic membrane (CAM); assay: chick embryo chorioallantoic membrane (CAM) angiogenesis model; assay type: in vivo
Excerpt: as §2

[8] = within the first 5 minutes post-ROSC

CNC[C@H](O)c1ccc(O)c(O)c1 [Epinephrine]
ATP levels (in words) [1]: increased slightly
higher concentration of cTnl (swine; post-ROSC, versus the nanoparticle groups): 2 fold
rate of ROSC (in words) (swine; swine, 7 minutes of cardiac arrest, intravenous, nanoparticles 0.125 mg/kg, Epinephrine 0.015 mg/kg): higher
survival duration (swine; swine, post-ROSC, up to 4 hours, nanoparticles 0.125 mg/kg, Epinephrine 0.015 mg/kg): 116 ± 26 min
coronary sinus PCO2 compared to vehicle (in words) (swine; [8]): not
coronary sinus pH compared to vehicle (in words) (swine; [8]): not
increase of NSE over baseline [2]: 64%
cardiac ATP levels (in words) (neonatal cardiomyocytes [3]): close to untreated hypoxic cardiomyocytes
Contraction/min (neonatal cardiomyocytes [4]; hypoxia): 28 min⁻¹
Rhythm (neonatal cardiomyocytes [4]; hypoxia): Irregular
Contraction/min (neonatal cardiomyocytes [4]; normoxia): 186 min⁻¹
Rhythm (neonatal cardiomyocytes [4]; normoxia): Regular
LDH levels (in words) [5]: showed an increase
Troponin T levels (in words) (neonatal cardiomyocytes [6]): close to untreated hypoxic cardiomyocytes

bFGF: basic fibroblast growth factor, positive comparator in the CAM model
Branch points (SEM) ([7]; bFGF, dose not given): 115.4 ± 3.2

N[C@@H](Cc1cc(I)c(Oc2ccc(O)c(I)c2)c(I)c1)C(=O)O [T3, triiodothyronine]
enhanced angiogenesis compared to the control group [7]: ~3 fold
Branch points (SEM) ([7]; 10 μg): 158.4 ± 5.5
improvement in observed branch points in comparison with bFGF ([7]; T3 10 μg, Nano-T3 1 μg): 37%
contraction levels in cardiomyocytes (in words) (neonatal cardiomyocytes [4]; hypoxia): close to those of the cells under normal conditions

Source: patent publication US20230018014A1, “NOVEL COMPOUNDS AND FORMULATIONS” (PRO-AL MEDICO-TECHNOLOGIES, INC., priority 2019, published 2023)
